Assay results as given in ChEMBL document CHEMBL1155271, “Synthesis, crystal structures and antibacterial activity studies of aza-derivatives of phytoalexin from cotton plant--gossypol” (2009).
≈ marks a conversion by molar mass, not a printed value. Calls of active or inactive are those of the source. No cut-off for these calls is given here.

Assays:
Format in all cases: functional
Staphylococcus aureus [1] = assay: Antimicrobial activity against Methicillin susceptible Staphylococcus aureus 213/7 by twofold dilution technique
Staphylococcus aureus [2] = assay: Antimicrobial activity against Methicillin susceptible Staphylococcus aureus 237/7 by twofold dilution technique
Staphylococcus aureus [3] = assay: Antimicrobial activity against Methicillin susceptible Staphylococcus aureus 238/7 by twofold dilution technique
Staphylococcus aureus [4] = assay: Antimicrobial activity against Methicillin susceptible Staphylococcus aureus 239/7 by twofold dilution technique
Staphylococcus aureus [5] = assay: Antimicrobial activity against Methicillin susceptible Staphylococcus aureus 242/7 by twofold dilution technique
Staphylococcus aureus [6] = assay: Antimicrobial activity against Methicillin susceptible Staphylococcus aureus 243/7 by twofold dilution technique
Staphylococcus aureus [7] = assay: Antimicrobial activity against methicillin-resistant Staphylococcus aureus 140/6 by twofold dilution technique
Staphylococcus aureus [8] = assay: Antimicrobial activity against methicillin-resistant Staphylococcus aureus 141/6 by twofold dilution technique
Staphylococcus aureus [9] = assay: Antimicrobial activity against methicillin-resistant Staphylococcus aureus 143/6 by twofold dilution technique
Staphylococcus aureus [10] = assay: Antimicrobial activity against methicillin-resistant Staphylococcus aureus 144/6 by twofold dilution technique
Staphylococcus aureus [11] = assay: Antimicrobial activity against methicillin-resistant Staphylococcus aureus 146/6 by twofold dilution technique
Staphylococcus aureus [12] = assay: Antimicrobial activity against methicillin-resistant Staphylococcus aureus 200/7 by twofold dilution technique
Staphylococcus aureus [13] = assay: Antimicrobial activity against methicillin-resistant Staphylococcus aureus 217/7 by twofold dilution technique
Staphylococcus aureus [14] = assay: Antimicrobial activity against methicillin-resistant Staphylococcus aureus 218/7 by twofold dilution technique
Staphylococcus aureus [15] = assay: Antimicrobial activity against methicillin-resistant Staphylococcus aureus 236/7 by twofold dilution technique
Staphylococcus aureus [16] = assay: Antimicrobial activity against Staphylococcus aureus NCTC 4163 at 400 ug after 18 hrs by disk diffusion method; settings: NCTC 4163, 18 h, read-out: DIZ
[17] = tested on: Staphylococcus epidermidis; assay: Antimicrobial activity against Staphylococcus epidermidis ATCC 12228 at 400 ug after 18 hrs by disk diffusion method; settings: ATCC 12228, 18 h, read-out: DIZ
Bacillus subtilis [18] = assay: Antimicrobial activity against Bacillus subtilis ATCC 6633 at 400 ug after 18 hrs by disk diffusion method; settings: ATCC 6633, 18 h, read-out: DIZ
Bacillus cereus [19] = assay: Antimicrobial activity against Bacillus cereus ATCC 11778 at 400 ug after 18 hrs by disk diffusion method; settings: ATCC 11778, 18 h, read-out: DIZ
Enterococcus hirae [20] = assay: Antimicrobial activity against Enterococcus hirae ATCC 10541 at 400 ug after 18 hrs by disk diffusion method
Micrococcus luteus [21] = assay: Antimicrobial activity against Micrococcus luteus ATCC 9341 at 400 ug after 18 hrs by disk diffusion method; settings: ATCC 9341, 18 h, read-out: DIZ
Micrococcus luteus [22] = assay: Antimicrobial activity against Micrococcus luteus ATCC 10240 at 400 ug after 18 hrs by disk diffusion method; settings: ATCC 10240, 18 h, read-out: DIZ
Staphylococcus aureus [23] = assay: Antimicrobial activity against Staphylococcus aureus ATCC 25923 at 400 ug after 18 hrs by disk diffusion method; settings: ATCC 25923, 18 h, read-out: DIZ
Staphylococcus aureus [24] = assay: Antimicrobial activity against Staphylococcus aureus ATCC 6538 at 400 ug after 18 hrs by disk diffusion method; settings: ATCC 6538, 18 h, read-out: DIZ
Staphylococcus aureus [25] = assay: Antimicrobial activity against Staphylococcus aureus ATCC 29213 at 400 ug after 18 hrs by disk diffusion method; settings: ATCC 29213, 18 h, read-out: DIZ
Staphylococcus aureus [26] = assay: Antimicrobial activity against Staphylococcus aureus NCTC 4163 after 18 hrs by twofold dilution technique; settings: NCTC 4163, 18 h
Staphylococcus aureus [27] = assay: Antimicrobial activity against Staphylococcus aureus ATCC 25923 after 18 hrs by twofold dilution technique; settings: ATCC 25923, 18 h
Staphylococcus aureus [28] = assay: Antimicrobial activity against Staphylococcus aureus ATCC 6538 after 18 hrs by twofold dilution technique; settings: ATCC 6538, 18 h
Staphylococcus aureus [29] = assay: Antimicrobial activity against Staphylococcus aureus ATCC 29213 after 18 hrs by twofold dilution technique; settings: ATCC 29213, 18 h
[30] = tested on: Staphylococcus epidermidis; assay: Antimicrobial activity against Staphylococcus epidermidis ATCC 12228 by twofold dilution technique
Bacillus subtilis [31] = assay: Antimicrobial activity against Bacillus subtilis ATCC 6633 after 18 hrs by twofold dilution technique; settings: ATCC 6633, 18 h
Bacillus cereus [32] = assay: Antimicrobial activity against Bacillus cereus ATCC 11778 after 18 hrs by twofold dilution technique; settings: ATCC 11778, 18 h
Enterococcus hirae [33] = assay: Antimicrobial activity against Enterococcus hirae ATCC 10541 after 18 hrs by twofold dilution technique; settings: ATCC 10541, 18 h
Micrococcus luteus [34] = assay: Antimicrobial activity against Micrococcus luteus ATCC 9341 after 18 hrs by twofold dilution technique; settings: ATCC 9341, 18 h
Micrococcus luteus [35] = assay: Antimicrobial activity against Micrococcus luteus ATCC 10240 by twofold dilution technique
Staphylococcus aureus [36] = assay: Antimicrobial activity against methicillin-resistant Staphylococcus aureus 136/6 by twofold dilution technique
Staphylococcus aureus [37] = assay: Antimicrobial activity against Methicillin susceptible Staphylococcus aureus 206/7 by twofold dilution technique
Staphylococcus aureus [38] = assay: Antimicrobial activity against Methicillin susceptible Staphylococcus aureus 207/7 by twofold dilution technique
Staphylococcus aureus [39] = assay: Antimicrobial activity against Methicillin susceptible Staphylococcus aureus 208/7 by twofold dilution technique
Staphylococcus aureus [40] = assay: Antimicrobial activity against Methicillin susceptible Staphylococcus aureus 212/7 by twofold dilution technique

Row | Compound | MIC (Staphylococcus aureus [1]) [µg/mL] | MIC (Staphylococcus aureus [2]) [µg/mL] | MIC (Staphylococcus aureus [3]) [µg/mL] | MIC (Staphylococcus aureus [4]) [µg/mL] | MIC (Staphylococcus aureus [5]) [µg/mL] | MIC (Staphylococcus aureus [6]) [µg/mL] | MIC (Staphylococcus aureus [7]) [µg/mL] | MIC (Staphylococcus aureus [8]) [µg/mL] | MIC (Staphylococcus aureus [9]) [µg/mL] | MIC (Staphylococcus aureus [10]) [µg/mL] | MIC (Staphylococcus aureus [11]) [µg/mL] | MIC (Staphylococcus aureus [12]) [µg/mL] | MIC (Staphylococcus aureus [13]) [µg/mL] | MIC (Staphylococcus aureus [14]) [µg/mL] | MIC (Staphylococcus aureus [15]) [µg/mL] | zone of inhibition at 400 µg/disc (Staphylococcus aureus [16]) [mm] | zone of inhibition at 400 µg/disc [17] [mm] | zone of inhibition at 400 µg/disc (Bacillus subtilis [18]) [mm] | zone of inhibition at 400 µg/disc (Bacillus cereus [19]) [mm] | zone of inhibition at 400 µg/disc (Micrococcus luteus [21]) [mm] | other results
1 | Cc1cc2c(c(O)c1-c1c(C)cc3c(c1O)/C(=C/N)C(=O)C(O)=C3C(C)C)/C(=C/N)C(=O)C(O)=C2C(C)C | 100 (≈ 194 µM) | 100 (≈ 194 µM) | 100 (≈ 194 µM) | 100 (≈ 194 µM) | 50 (≈ 96.8 µM) | 100 (≈ 194 µM) | 100 (≈ 194 µM) | 100 (≈ 194 µM) | 100 (≈ 194 µM) | 100 (≈ 194 µM) | 100 (≈ 194 µM) | 100 (≈ 194 µM) | 200 (≈ 387 µM) | 100 (≈ 194 µM) | 100 (≈ 194 µM) | 15 | 12 | 11 | 11 | 11 | diameter of the inhibition zone (DIZ) (Enterococcus hirae [20]): inactive; zone of inhibition at 400 µg/disc (Micrococcus luteus [22]): 14 mm; zone of inhibition at 400 µg/disc (Staphylococcus aureus [23]): 13 mm; zone of inhibition at 400 µg/disc (Staphylococcus aureus [24]): 14 mm; zone of inhibition at 400 µg/disc (Staphylococcus aureus [25]): 13 mm; MIC (Staphylococcus aureus [26]): 100 µg/mL (≈ 194 µM); MIC (Staphylococcus aureus [27]): 100 µg/mL (≈ 194 µM); MIC (Staphylococcus aureus [28]): 50 µg/mL (≈ 96.8 µM); MIC (Staphylococcus aureus [29]): 50 µg/mL (≈ 96.8 µM); MIC [30]: > 400 µg/mL; MIC (Bacillus subtilis [31]): 100 µg/mL (≈ 194 µM); MIC (Bacillus cereus [32]): 50 µg/mL (≈ 96.8 µM); MIC (Enterococcus hirae [33]): 100 µg/mL (≈ 194 µM); MIC (Micrococcus luteus [34]): 100 µg/mL (≈ 194 µM); MIC (Micrococcus luteus [35]): 100 µg/mL (≈ 194 µM); MIC (Staphylococcus aureus [36]): 100 µg/mL (≈ 194 µM); MIC (Staphylococcus aureus [37]): 100 µg/mL (≈ 194 µM); MIC (Staphylococcus aureus [38]): 200 µg/mL (≈ 387 µM); MIC (Staphylococcus aureus [39]): 100 µg/mL (≈ 194 µM); MIC (Staphylococcus aureus [40]): 200 µg/mL (≈ 387 µM)
2 | COc1ccc2[nH]cc(CCN/C=C3\C(=O)C(O)=C(C(C)C)c4cc(C)c(-c5c(C)cc6c(c5O)/C(=C/NCCc5c[nH]c7ccc(OC)cc57)C(=O)C(O)=C6C(C)C)c(O)c43)c2c1 | 100 (≈ 116 µM) | 100 (≈ 116 µM) | 100 (≈ 116 µM) | 100 (≈ 116 µM) | 50 (≈ 57.9 µM) | 100 (≈ 116 µM) | 100 (≈ 116 µM) | 100 (≈ 116 µM) | 100 (≈ 116 µM) | 200 (≈ 232 µM) | 100 (≈ 116 µM) | 100 (≈ 116 µM) | 200 (≈ 232 µM) | 100 (≈ 116 µM) | 100 (≈ 116 µM) | 16 | 15 | 15 | 15 | 11 | zone of inhibition at 400 µg/disc (Enterococcus hirae [20]; ATCC 10541, 18 h, read-out: DIZ): 14 mm; zone of inhibition at 400 µg/disc (Micrococcus luteus [22]): 15 mm; zone of inhibition at 400 µg/disc (Staphylococcus aureus [23]): 15 mm; zone of inhibition at 400 µg/disc (Staphylococcus aureus [24]): 16 mm; zone of inhibition at 400 µg/disc (Staphylococcus aureus [25]): 15 mm; MIC (Staphylococcus aureus [26]): 100 µg/mL (≈ 116 µM); MIC (Staphylococcus aureus [27]): 100 µg/mL (≈ 116 µM); MIC (Staphylococcus aureus [28]): 50 µg/mL (≈ 57.9 µM); MIC (Staphylococcus aureus [29]): 50 µg/mL (≈ 57.9 µM); MIC [30]: 200 µg/mL (≈ 232 µM); MIC (Bacillus subtilis [31]): 200 µg/mL (≈ 232 µM); MIC (Bacillus cereus [32]): 100 µg/mL (≈ 116 µM); MIC (Enterococcus hirae [33]): 100 µg/mL (≈ 116 µM); MIC (Micrococcus luteus [34]): 100 µg/mL (≈ 116 µM); MIC (Micrococcus luteus [35]): 100 µg/mL (≈ 116 µM); MIC (Staphylococcus aureus [36]): 100 µg/mL (≈ 116 µM); MIC (Staphylococcus aureus [37]): 100 µg/mL (≈ 116 µM); MIC (Staphylococcus aureus [38]): 200 µg/mL (≈ 232 µM); MIC (Staphylococcus aureus [39]): 100 µg/mL (≈ 116 µM); MIC (Staphylococcus aureus [40]): 100 µg/mL (≈ 116 µM)
